Data on 19 molecules can be found in patent publication US7511044B2, “Vanilloid receptor ligands and their use in treatments” (Amgen Inc., priority 2004, dated 2009).

SMILES strings stand for the structures.

For `CC(=O)Nc1ccc2cccc(Oc3cc(N4CCN([C@H](C)c5ccc(F)cc5)CC4)ncn3)c2n1` [Example 69, (R)-N-(8-(6-(4-(1-(4-Fluorophenyl)ethyl)piperazin-1-yl)pyrimidin-4-yloxy)quinolin-2-yl)acetamide], the melting point (commonly the temperature of the solid-liquid transition) is 134 °C.

The molecule `C[C@@H](c1ccc(F)cc1)N1CCN(c2cc(Oc3cc(F)cc4[nH]c(=O)c(N)nc34)ncn2)CC1` [Example 58, (S)-3-Amino-7-fluoro-5-(6-(4-(1-(4-fluorophenyl)ethyl)piperazin-1-yl)pyrimidin-4-yloxy)quinoxalin-2(1H)-one] came in with a melting point of 288 °C. Molecule `CC(c1ccc(F)cc1)N1CCN(c2cc(Oc3cccc4c(=O)[nH]ccc34)ncn2)CC1` (stereo not shown) [Example 72, 5-(6-(4-(1-(4-Fluorophenyl)ethyl)piperazin-1-yl)pyrimidin-4-yloxy)isoquinolin-1(2H)-one] displayed a melting point of 249 °C.

With `CC(=O)Nc1nc2c(Oc3cc(N4CCN(C(C)c5ccc(F)cc5)CC4)ncn3)cccc2s1` (racemic) [Example 2, N-[4-(6-{4-[(1S,1R)-1-(4-Fluoro-phenyl) -ethyl]-piperazine1-yl}-pyrimidin-4-yloxy)-benzothiazol-2-yl]-acetamide], the melting point was determined as 247.3 °C. The figure for `C[C@H](c1ccc(F)cc1)N1CCN(c2cc(Oc3cccc4c3nc(N)c(=O)n4C)ncn2)CC1` [Example 59, (R)-3-Amino-5-(6-(4-(1-(4-fluorophenyl)ethyl)piperazin-1-yl)pyrimidin-4-yloxy)-1-methylquinoxalin-2(1H)-one] is 256 °C. The figure for `CC(c1ccc(F)cc1)N1CCN(c2cc(Oc3cccc4[nH]c(=O)ccc34)ncn2)CC1` (stereo not shown) [Example 61, 5-(6-(4-(1-(4-Fluorophenyl)ethyl)piperazin-1-yl)pyrimidin-4-yloxy)quinoline-2(1H)-one] is 242.2 °C. `CC(c1ccc(F)cc1)N1CCN(c2cc(Oc3cccc4c3NCC(=O)N4)ncn2)CC1` (stereo not shown) [Example 71, 5-(6-(4-(1-(4-Fluorophenyl)ethyl)piperazin-1-yl)pyrimidin-4-yloxy)-3,4-dihydroquinoxalin-2-(1H)-one] displayed a melting point of 221 °C. `CC(=O)Nc1nc2c(Oc3cc(N4CCN([C@@H](C)c5ccc(F)cc5)CC4)ncn3)cccc2s1` [Example 21, N-[4-(6-{4-[(1S)-1-(4-Fluoro-phenyl)-ethyl]-piperazine 1-yl}-pyrimidin-4-yloxy)-benzothiazol-2-yl]-acetamide] came in with a melting point of 243.6 to 245.7 °C.

The molecule `C[C@@H](c1ccc(F)cc1)N1CCN(c2cc(Oc3cccc4ncc(N)nc34)ncn2)CC1` [Example 54, (S)-8-(6-(4-(1-(4-Fluorophenyl)ethyl)piperazin-1-yl)pyrimidin-4-yloxy)quinoxalin-2-amine] came in with a melting point of 114 °C. On to `CC(c1ccc(F)cc1)N1CCN(c2cc(Oc3cccc4sc(N)nc34)ncn2)CC1` (stereo not shown) [Example 52, 4-(6-(4-(1-(4-Fluorophenyl)ethyl)piperazin-1-yl)pyrimidin-4-yloxy)benzo[d]thiazol-2-amine], for which the melting point was 222 °C. Then `CC(=O)Nc1nc2c(Oc3cc(N4CCN([C@H](C)c5ccc(F)cc5)CC4)ncn3)cccc2s1` [Example 22, N-[4-(6-{4-[(1R)-1-(4-Fluoro-phenyl)-ethyl]-piperazine1-yl}-pyrimidin-4-yloxy)-benzothiazol-2-yl]-acetamide], with 243.8 to 245.9 °C; and `CC(=O)Nc1nc2c(Oc3cc(N4CCN(C(C)c5ccccc5F)CC4)ncn3)cccc2s1` (racemic) [Example 1, N-[4-(6-{4-[(1S,1R)-1-(2-Fluoro-phenyl)-ethyl]-piperazin-1-yl}-pyrimidin-4-yloxy)-benzothiazol-2-yl]-acetamide], with 202.6 to 204.3 °C. The figure for `CC(=O)Nc1nc2c(Oc3cc(N4CCN(C(C)c5ccc(F)cc5)CC4)ncn3)cccc2o1` (stereo not shown) [Example 66, N-(4-(6-(4-(1-(4-Fluorophenyl)ethyl)piperazin-1-yl)pyrimidin-4-yloxy)benzo[d]oxazol-2-yl)acetamide] is 199.8 °C; for `CC(c1ccc(F)cc1)N1CCN(c2cc(Oc3cccc4ccncc34)ncn2)CC1` (stereo not shown) [Example 70, 8-(6-(4-(1-(4-Fluorophenyl)ethyl)piperazin-1-yl)pyrimidin-4-yloxy)isoquinoline] it is 114 °C. Then `C[C@H](c1ccc(F)cc1)N1CCN(c2cc(Oc3cc(F)cc4[nH]c(=O)c(N)nc34)ncn2)CC1` [Example 57, (R)-3-Amino-7-fluoro-5-(6-(4-(1-(4-fluorophenyl)ethyl)piperazin-1-yl)pyrimidin-4-yloxy)quinoxalin-2(1H)-one], with 315 °C. Turning to `C[C@@H](c1ccc(F)cc1)N1CCN(c2cc(Oc3cccc4[nH]c(=O)c(N)nc34)ncn2)CC1` [Example 27, 3-Amino-5-(6-{4-[(1S)-1-(4-fluoro-phenyl)-ethyl]-piperazin-1-yl}-pyrimidin-4-yloxy)-1H-quinoxalin-2-one], the melting point fell in the range of 294.5 to 295.3 °C. Molecule `C[C@H](c1ccc(F)cc1)N1CCN(c2cc(Oc3cccc4ncc(N)nc34)ncn2)CC1` [Example 55, (R)-8-(6-(4-(1-(4-Fluorophenyl)ethyl)piperazin-1-yl)pyrimidin-4-yloxy)quinoxalin-2-amine] registered a melting point of 118 °C. On to `C[C@@H](c1ccc(F)cc1)N1CCN(c2cc(Oc3cccc4ccc(N)nc34)ncn2)CC1` [Example 24, 8-(6-{4-[(1S)-(4-Fluoro-phenyl)-ethyl]-piperazine-1-yl}-pyrimidin-4-yloxy)-quinolin-2-ylamine], for which the melting point turned out to be 167 °C.

Regarding `C[C@H](c1ccc(F)cc1)N1CCN(c2cc(Oc3cccc4[nH]c(=O)c(N)nc34)ncn2)CC1` [Example 26, 3-Amino-5-(6-{4-[(1R)-1-(4-fluoro-phenyl)-ethyl]-piperazin-1-yl}-pyrimidin-4-yloxy)-1H-quinoxalin-2-one], the melting point is 292.2 to 293.9 °C.
